The values that follow come from patent US9943844B2, “Microfluidic evaluation system for evaluating the efficacy of an antiperspirant product and associated method” (L'OREAL, priority 2013, dated 2018).

The conditions of experiment [1]: cited from earlier work.
Experiment [2] is described as follows: Microfluidic evaluation of antiperspirant efficacy: clog formation at the confluence of secondary (sweat) channel and main channel, seen by phase contrast microscopy. From the text:
The invention also has for object a method for evaluating the efficacy of an antiperspirant product comprising the following steps: • supplying an evaluation system 1 such as described hereinabove; • injecting natural and/or artificial sweat into the or each secondary channel 9 of the microfluidic chip 5 from the sweat source 3; • injecting at least one antiperspirant product into the main channel 7; • determining at least one physical-chemical parameter that represents the efficacy of the antiperspirant agent considered; and • evaluating the efficacy of the antiperspirant product using the determined physical-chemical parameter.
The step of filling is followed by a step of distributing, during which the antiperspirant product flowing in the main channel 7 and the sweat flowing in the secondary channel or channels 9 react together, in particular on the zones of confluence between the sweat flowing in the secondary channel or channels 9 and the antiperspirant product flowing in the main channel 7. According to the efficacy of the antiperspirant product, during this step of distributing, the interaction between the sweat and the antiperspirant product leads to the formation of clogs at the outlet 25 of the secondary channel or channels 9.
These values can in particular be Boolean values. For example, the physical-chemical parameter measured is the formation or not of a clog, and it is concluded that the antiperspirant product tested is effective if the formation of a clog is observed during the method. If no formation of a clog is observed, non-efficacy is concluded for the antiperspirant product.
These tests were conducted with the microfluidic chip 4 described hereinabove, and by using as imaging tool 45 a phase contrast microscope.
The injection of the sweat and of the antiperspirant product was carried out according to the sequence described in the table 1.
It is considered that the antiperspirant product is not effective when no clog is formed in the secondary channel 9. In this case, the sweat of the secondary channel 9 can freely flow in the main channel 7.

Where two headings read alike, the source gives them in different places.

Consider Aluminum Zirconium Glycine [AZG], for which the “antiperspirant efficacy in vivo” value in experiment [1] (in vivo) is listed as “effective”. Also, the Evaluation result in experiment [2] is recorded as “Effective”.

Take aluminum chlorohydrate [ACH]: the “antiperspirant efficacy in vivo” value in experiment [1] (known to be (not) effective antiperspirant agent in vivo) is reported as “effective”. Moreover, the Evaluation result in experiment [2] (concentration 5%, injection sequence of table 1, effective = formation of a clog in secondary channel preventing sweat flow, not effective = no clog formed) is “Effective”; in experiment [2] (concentration 15%, injection sequence of table 1, effective = formation of a clog in secondary channel preventing sweat flow, not effective = no clog formed), “Effective”.
